Our source for the IC50 values is US7163941B2, “Pyrido[2,3-d]pyrimidin-7-carboxylic acid derivatives, their manufacture and use as pharmaceutical agents” (Hoffmann-La Roche Inc., priority 2003, dated 2007).

The structures appear in SMILES notation.

Experiment [1] addresses T1, Src (p60^c-src, partially purified) (Homo sapiens, UniProt P12931).
T1 construct: purchased Upstate (UBI)
Description: SRC-Inhibitor-Assay (time-resolved fluorescence), Src enzyme. The class given is biochemical. To be noted: ATP 5 μM, peptide 10 μM, enzyme 2.5 U/ml, pre-incubation 15 min at 15° C.

The target of the next experiment is T2, Lck (p56^lck, active) (Homo sapiens, UniProt P06239).
T2 construct: purchased Upstate (UBI)
The experiment is described as follows: SRC-Inhibitor-Assay (time-resolved fluorescence), Lck enzyme. As to conditions: ATP 5 μM, peptide 10 μM, enzyme 2.5 U/ml, pre-incubation 15 min at 15° C. The class given is biochemical.

T2 sequence (P06239 whole entry, species assumed): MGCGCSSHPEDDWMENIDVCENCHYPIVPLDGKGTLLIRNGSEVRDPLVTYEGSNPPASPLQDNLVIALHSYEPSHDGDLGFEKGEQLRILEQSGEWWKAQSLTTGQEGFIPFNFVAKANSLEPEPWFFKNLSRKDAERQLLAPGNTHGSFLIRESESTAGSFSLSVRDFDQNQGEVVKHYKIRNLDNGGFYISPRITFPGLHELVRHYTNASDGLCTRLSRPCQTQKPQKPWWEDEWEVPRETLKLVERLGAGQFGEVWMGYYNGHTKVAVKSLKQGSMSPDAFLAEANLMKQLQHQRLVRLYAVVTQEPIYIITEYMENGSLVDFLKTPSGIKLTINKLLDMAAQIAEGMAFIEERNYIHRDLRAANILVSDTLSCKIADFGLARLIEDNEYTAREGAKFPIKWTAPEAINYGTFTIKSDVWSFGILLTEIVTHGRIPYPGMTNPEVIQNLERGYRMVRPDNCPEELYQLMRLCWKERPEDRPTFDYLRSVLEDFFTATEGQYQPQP
T1 sequence (P12931 whole entry, species assumed): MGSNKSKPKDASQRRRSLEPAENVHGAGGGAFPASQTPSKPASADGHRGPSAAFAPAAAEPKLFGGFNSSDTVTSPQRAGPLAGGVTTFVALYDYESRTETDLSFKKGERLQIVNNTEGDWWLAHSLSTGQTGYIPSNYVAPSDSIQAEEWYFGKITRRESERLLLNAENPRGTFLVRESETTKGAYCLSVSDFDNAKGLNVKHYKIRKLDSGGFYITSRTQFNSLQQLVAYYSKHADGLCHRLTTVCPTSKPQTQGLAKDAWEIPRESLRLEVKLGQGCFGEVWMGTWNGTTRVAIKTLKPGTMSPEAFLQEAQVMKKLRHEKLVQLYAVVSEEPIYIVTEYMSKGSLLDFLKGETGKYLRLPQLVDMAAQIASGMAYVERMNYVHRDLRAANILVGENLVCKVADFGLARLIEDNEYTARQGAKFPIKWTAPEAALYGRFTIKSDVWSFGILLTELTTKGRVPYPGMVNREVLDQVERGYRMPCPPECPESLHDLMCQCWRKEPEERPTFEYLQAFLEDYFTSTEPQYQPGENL

On to `CC(=O)Nc1cccc(Nc2ncc3cc(-c4ccccc4Br)c(C(=O)NCCNS(C)(=O)=O)nc3n2)c1` [Example 7-21, 2-(3-acetylamino-phenylamino)-6-(2-bromo-phenyl)-pyrido[2,3-d]pyrimidine-7-carboxylic acid (2-methanesulfonylamino-ethyl)-amide], for which the IC50 in experiment [1] was determined as 1.8 nM; against Lck (p56^lck, active), 12 nM.

For the molecule `CS(=O)(=O)NCCNC(=O)c1nc2nc(Nc3ccc4c(c3)S(=O)(=O)CCO4)ncc2cc1-c1ccccc1Br` [Example 7-22, 6-(2-bromo-phenyl)-2-(4,4-dioxo-3,4-dihydro-2H-4lambda*6*-benzo[1,4]oxathiin-6-ylamino)-pyrido[2,3-d]pyrimidine-7-carboxylic acid (2-methanesulfonylamino-ethyl)-amide], the IC50 in experiment [1] was 5 nM; against Lck (p56^lck, active), 37 nM.

For the molecule `CS(=O)(=O)NCCNC(=O)c1nc2nc(Nc3cccc(SCCO)c3)ncc2cc1-c1ccccc1Br` [Example 7-23, 6-(2-bromo-phenyl)-2-[3-(2-hydroxy-ethylsulfanyl)-phenylamino]-pyrido[2,3-d]pyrimidine-7-carboxylic acid (2-methanesulfonylamino-ethyl)-amide], the IC50 in experiment [1] worked out at 1 nM; against Lck (p56^lck, active), 6.1 nM.

For `CS(=O)(=O)NCCNC(=O)c1nc2nc(Nc3ccc4c(c3)OC(CO)CO4)ncc2cc1-c1ccccc1Br` (centres unmarked) [Example 7-24, 6-(2-bromo-phenyl)-2-(3-hydroxymethyl-2,3-dihydro-benzo[1,4]dioxin-6-ylamino)-pyrido[2,3-d]pyrimidine-7-carboxylic acid (2-methanesulfonylamino-ethyl)-amide], the IC50 in experiment [1] worked out at 4 nM; against Lck (p56^lck, active), 9 nM.

Usually IC50 stands for the concentration at which inhibition is half-maximal. A higher IC50 goes with a need for much substance.
